# Measured values published in patent publication US20180221329A1, “CIS- AND TRANS-SUFFRUTICOSOL D AS THERAPEUTIC AGENTS” (MIDDLE TENNESSEE STATE UNIVERSITY, priority 2015, published 2018).
# What was measured:
# [1] = tested on: MCF-7 (estrogen receptor-positive human breast adenocarcinoma) cells; assay: Cell proliferation assay (AlamarBlue), MCF-7; assay type: cell-based; conditions: for IC50: MCF-7, 48 h, AlamarBlue; for Selectivity: MCF-7 versus normal HMEC cells
# Procedure: (§1) Cell culture. Four human cancer cell lines including A549 (lung carcinoma), BT20 (estrogen receptor-negative human breast adenocarcinoma), MCF-7 (estrogen receptor-positive human breast adenocarcinoma) and U2OS (human osteosarcoma) were purchased from American Type Culture Collection (ATCC). An A549 cell line that stably expresses Green Fluorescent Protein (GFP) was purchased from Cell BioLabs Inc. (San Diego, Calif., USA). A549, A549-GFP and BT20 cells were cultured in RPMI 1640 media (Sigma-Aldrich, St. Louis, Mo., USA), MCF7 cells were cultured in DMEM medium (ATCC, Manassas, Va., USA), and U20S cells were cultured in McCoy's 5A medium (ATCC, Manassas, Va., USA). As a control, HMEC cells (primary human mammary breast epithelial cells) were purchased from ATCC and cultured in McCoy's 5A medium. All medium contained 10% FBS (Sigma-Aldrich, St. Louis, Mo., USA) and 1% streptomycin and penicillin (Sigma-Aldrich, St. Louis, Mo., USA). These cells were incubated in a humid environment with 5% CO2 at 37° C.
# (§2) Cell proliferation assay. The resazurin reduction reagent AlamarBlue (Invitrogen, Frederick, Md., USA) was used to evaluate the cytotoxicity of the compounds. Cells were plated at a density of 5×10^3 cells per well in 96-well microplates with 100 μl culture medium, and were allowed to attach for 16 h prior to treatment. Next, all the medium was replaced with medium containing the cis- or trans-suffruticosol D compounds at seven different concentrations: 320, 100, 32, 10, 3.2, 1.0, and 0.32 μM. The cells were placed in an incubator for 48 h at 37° C. Cells that were treated with medium-containing vehicle (1% DMSO) only serve as negative control. Subsequently, AlamarBlue solution was added to the medium and the cells were incubated in the CO2 incubator for 1 h. The fluorescent intensity change of the dye was measured at Ex 555 nm and Em 590 nm using a plate reader (Molecular Devices, Sunnyvale, Calif., USA). The cytotoxicity was examined by determining by IC50, the dose that inhibited 50% of cell growth, using GraphPad Prism software (GraphPad Software, La Jolla, Calif., USA).
# (§3) Table 1. IC50 values of cis- and trans-suffruticosol D in selected cancer and normal cell lines. Cells were treated with various concentrations of cis- or trans-suffruticosol D for 48 h, and the viability of cells was evaluated with AlamarBlue dye.
# [2] = tested on: A549 (lung carcinoma) cells; assay: Cell proliferation assay (AlamarBlue), A549; assay type: cell-based, human; conditions: for Selectivity: A549 versus normal HMEC cells; for IC50: A549, 48 h, AlamarBlue
# Procedure: as §1, §2, §3
# A549-GFP cells = assay: Cell motility assay (fluorescent bead track area); assay type: cell-based, human; conditions: 18 h, medium with 10% FBS
# Procedure: FIGS. 4A and 4B depict cell motility changes induced by cis- and trans-suffruticosol D in A549 cells. A549-GFP cells were seeded in 96-well plate with a monolayer of fluorescent beads. After treatment with cis- or trans-suffruticosol D for 18 h, individual cell movement was evaluated by measuring the fluorescent track area. Cells treated with serum free medium served as a negative control and cells treated with medium containing 10% serum served as a positive control.
# Cell motility assay. A 96-well collagen plate (Corning, N.Y., USA) was coated with blue fluorescent beads (Life Technologies, Eugene, Oreg., USA) as follows. The beads were centrifuged for 1 min at 14,000 g and washed twice with PBS, then 75 μl beads were added to each well of the 96-well collagen plate and incubated for 1 h at 37° C. The cells were seeded on the lawn of fluorescent beads and the sizes of the tracks generated by migrating cells were measured. After the plate was washed 5 times with PBS, A549-GFP cells were seeded at 500 cells/well in the coated plate and incubated for 1 h at 37° C. Subsequently the cells were treated with different concentrations of cis- or trans-suffruticosol D in medium containing 10% FBS for 18 h. Cells treated with serum-free medium serve as the negative control and cells treated with medium containing 10% FBS serve as the positive control. Cell tracks were imaged using an Arrayscan VTI HCS reader (Thermo Scientific, Waltham, Mass., USA) and the data was analyzed by vHCS Scan software. The mean of the full track area per cell for the test compound and the controls was calculated.
# [3] = tested on: BT20 (estrogen receptor-negative human breast adenocarcinoma) cells; assay: Cell proliferation assay (AlamarBlue), BT20; assay type: cell-based; conditions: for Selectivity: BT20 versus normal HMEC cells; for IC50: BT20, 48 h, AlamarBlue
# Procedure: as §1, §2, §3
# [4] = tested on: U2OS (human osteosarcoma) cells; assay: Cell proliferation assay (AlamarBlue), U2OS; assay type: cell-based; conditions: for Selectivity: U2OS versus normal HMEC cells; for IC50: U2OS, 48 h, AlamarBlue
# Procedure: as §1, §2, §3
# A549 cells = assay: Oxidative stress assay (ROS, DHE, HCS reader); assay type: cell-based, human; conditions: 24 h
# Procedure: FIGS. 3A and 3B depict induction of oxidative stress by cis- and trans-suffruticosol D in A549 cells. A549 cells were treated with various concentrations of cis- or trans-suffruticosol D for 24 h, then stained with Hoechst and dihydroethidium (DHE) dye. Cells treated with Doxorubicin served as a positive control, and cells treated with vehicle only served as a negative control. The reactive oxygen species (ROS) levels were measured by the fluorescent intensity of DHE that was converted to ethidium bromide.
# Oxidative stress assay. The Hitkit oxidative stress kit (Thermo Scientific, Waltham, Mass., USA) was used to determine the generation of reactive oxygen species (ROS) according to the manufacturer's instructions. Briefly, A549 cells were treated with cis- or trans-suffruticosol D for 24 h, fixed with warm 37% formaldehyde and stained with Hoechst and dihydroethidium (DHE) dye for 30 min at 37° C. with 5% CO2. Doxorubicin (DOX) at 1 μM concentration was used as a positive control and cells treated with vehicle only were used as negative control. ROS generation in the nuclei was indicated by the production of the fluorescent ethidium, and assessed by measuring the nuclear fluorescent intensity using an ArrayScan VTI High-content screening (HCS) reader (Thermo Scientific, Waltham, Mass., USA). Images were acquired and data was analyzed by vHCS Scan software.
smiles,measurement,setting,value
Oc1ccc(/C=C/c2c3c(cc4c2[C@@H](c2cc(O)cc(O)c2)[C@H](c2ccc(O)cc2)O4)O[C@H](c2ccc(O)cc2)[C@@H]3c2cc(O)cc(O)c2)cc1 [trans-suffruticosol D],IC50,[1]; listed as trans-SD,15.8 ± 1.6 µM
same,Selectivity,[1]; listed as trans-SD,9.3
same,Selectivity,[2]; listed as trans-SD,12.3
same,IC50,[2]; Homo sapiens,11.9 ± 1.2 µM
same,decrease of A549 cell motility,A549-GFP cells; 10 μM,40.7%
same,decrease of A549 cell motility,A549-GFP cells; 32 μM,40.7%
same,decrease of A549 cell motility,A549-GFP cells; 100 μM,54.9%
same,Selectivity,[3]; listed as trans-SD,14.8
same,IC50,"[3]; Homo sapiens, BT-20, 48 h",9.9 ± 3.8 µM
same,Selectivity,[4]; listed as trans-SD,12.9
same,IC50,[4]; listed as trans-SD,11.3 ± 2.3 µM
same,increase of ROS levels,A549 cells; 10 μM,32.8%
same,increase of ROS levels,A549 cells; 32 μM,34.6%
same,increase of ROS levels,A549 cells; 100 μM,87.2%
Oc1ccc(C=Cc2c3c(cc4c2[C@@H](c2cc(O)cc(O)c2)[C@H](c2ccc(O)cc2)O4)O[C@H](c2ccc(O)cc2)[C@@H]3c2cc(O)cc(O)c2)cc1 [cis-suffruticosol D],IC50,[1]; listed as cis-SD,46.8 ± 3.3 µM
same,Selectivity,[1]; listed as cis-SD,5.8
same,IC50,[2]; listed as cis-SD,17.1 ± 1 µM
same,Selectivity,[2]; listed as cis-SD,15.8
same,decrease of A549 cell motility,A549-GFP cells; 10 μM,42.3%
same,decrease of A549 cell motility,A549-GFP cells; 32 μM,42.0%
same,decrease of A549 cell motility,A549-GFP cells; 100 μM,50.4%
same,IC50,[3]; listed as cis-SD,13.4 ± 2.5 µM
same,Selectivity,[3]; listed as cis-SD,20
same,Selectivity,[4]; listed as cis-SD,11
same,IC50,[4]; listed as cis-SD,24.6 ± 4.4 µM
same,increase of ROS levels,A549 cells; 10 μM,32.8%
same,increase of ROS levels,A549 cells; 32 μM,55.6%
same,increase of ROS levels,A549 cells; 100 μM,73.1%
